The source of these data is paper PMC5824344 (ACS Chemical Biology, 2017).

Structures are written as SMILES. A value given as a limit tells only on which side of the number the result lay.

What all share (type): biochemical
Assay [1] concerns the target T1, Rat liver ER α-glucosidase I (Rattus norvegicus, UniProt O88941).
T1 construct: Rat liver ER, I; from tissue; host or cells: liver of male Wistar rats
T1 sequence (O88941 1-834): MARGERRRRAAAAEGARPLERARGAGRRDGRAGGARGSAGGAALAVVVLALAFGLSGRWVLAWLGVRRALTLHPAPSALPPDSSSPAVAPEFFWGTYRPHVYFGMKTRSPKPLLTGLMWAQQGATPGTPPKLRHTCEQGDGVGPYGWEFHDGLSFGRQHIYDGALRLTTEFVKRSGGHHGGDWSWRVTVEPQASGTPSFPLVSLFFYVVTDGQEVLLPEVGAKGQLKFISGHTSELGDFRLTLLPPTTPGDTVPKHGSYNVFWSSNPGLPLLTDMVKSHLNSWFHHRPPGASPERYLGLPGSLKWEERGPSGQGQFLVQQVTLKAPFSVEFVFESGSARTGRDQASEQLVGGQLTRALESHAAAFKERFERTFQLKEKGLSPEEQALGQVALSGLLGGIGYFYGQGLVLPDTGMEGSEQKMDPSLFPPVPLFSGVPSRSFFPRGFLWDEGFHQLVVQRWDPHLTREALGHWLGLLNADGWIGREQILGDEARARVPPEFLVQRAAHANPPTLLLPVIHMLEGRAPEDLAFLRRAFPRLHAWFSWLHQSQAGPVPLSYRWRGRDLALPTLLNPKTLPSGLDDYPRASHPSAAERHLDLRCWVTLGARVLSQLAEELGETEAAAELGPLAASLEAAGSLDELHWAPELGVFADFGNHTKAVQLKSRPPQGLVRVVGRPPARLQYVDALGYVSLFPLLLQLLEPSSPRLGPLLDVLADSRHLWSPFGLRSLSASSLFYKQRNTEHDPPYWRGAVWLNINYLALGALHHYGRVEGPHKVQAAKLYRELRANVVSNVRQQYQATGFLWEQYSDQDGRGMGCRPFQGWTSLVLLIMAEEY
The assay is described as follows: Inhibition of isolated rat liver ER α-glucosidase I (anthranilic acid-labelled Glc3Man7GlcNAc2 substrate, HPLC). The following applies: for IC50: isolated enzyme in vitro, mean of three measurements. Here is the method: (§1) 4 Enzyme Inhibition Assays
(§2) All rat enzymes were isolated from 18-week-old, male Wistar rats, while human lysosomal α-glucosidase was obtained in commercially available form from Sanoﬁ Genzyme. Inhibition of isolated glucosidases was evaluated as described previously. 3 Brieﬂy, maltase, isomaltase, sucrase, and cellobiase were used as partially puriﬁed tissue extracts. Inhibition assays for each enzyme were performed with the respective natural substrate, and release of d-glucose measured by Glucose B-test (Wako Diagnostics). Assays of rat ER α-glucosidase II and human lysosomal α-glucosidase inhibition were conducted with α-p-nitrophenylglucoside as substrate; 400 mm Na2CO3 was added to quench these reactions, and the extent of hydrolysis was evaluated as absorbance at 400 nm by spectrophotometer.
(§3) ER α-glucosidase I inhibition assays were performed using anthranilic acid-labelled Glc3Man7GlcNAc2 as substrate. After terminating the reaction with acetonitrile, protein was removed by cen-trifugation through a 10 kDa molecular weight cut oﬀ ﬁlter. The amount of hydrolysis was then quantiﬁed by normal phase high performance liquid chromatography analysis of unreacted substrate and product (Glc2Man7GlcNAc2).4
(§4) ER α-glucosidase II inhibition assays using native-like substrates were performed using an-thranilic acid-labelled Glc2Man7GlcNAc2 as substrate. After terminating the reaction with acetonitrile, protein was removed by centrifugation through a 10 kDa molecular weight cut oﬀ ﬁlter. The amount of hydrolysis was then quantiﬁed by normal phase high performance liq-uid chromatography analysis of unreacted substrate and both products (Glc1Man7GlcNAc2

The next assay concerns the target Rat intestinal maltase. Nature of the assay: Inhibition of rat intestinal maltase (natural substrate, glucose release). The conditions noted are these: for IC50: isolated enzyme in vitro, mean of three measurements, read-out: IC50, α-Glucosidase, Rat intestinal maltase. Here is the method:
as §1, §2, §3, §4

Assay [2] deals with T2, Rat intestinal isomaltase (Rattus norvegicus, UniProt P23739).
T2 construct: from tissue; host or cells: intestine of male Wistar rats, partially purified extract
Nature of the assay: Inhibition of rat intestinal isomaltase (natural substrate, glucose release). The following applies: for IC50: isolated enzyme in vitro, mean of three measurements, read-out: IC50, α-Glucosidase, Rat intestinal isomaltase. Here is the method: as §1, §2, §3, §4

For assay [3], the target named is T3, human lysosomal α-glucosidase (Homo sapiens, UniProt P10253).
T3 construct: purchased Sanofi Genzyme
Nature of the assay: Inhibition of human lysosomal α-glucosidase (α-p-nitrophenylglucoside substrate). The following applies: for IC50: isolated enzyme in vitro, mean of three measurements, read-out: IC50, α-Glucosidase, Human lysosome.

T2 sequence (P23739 whole entry): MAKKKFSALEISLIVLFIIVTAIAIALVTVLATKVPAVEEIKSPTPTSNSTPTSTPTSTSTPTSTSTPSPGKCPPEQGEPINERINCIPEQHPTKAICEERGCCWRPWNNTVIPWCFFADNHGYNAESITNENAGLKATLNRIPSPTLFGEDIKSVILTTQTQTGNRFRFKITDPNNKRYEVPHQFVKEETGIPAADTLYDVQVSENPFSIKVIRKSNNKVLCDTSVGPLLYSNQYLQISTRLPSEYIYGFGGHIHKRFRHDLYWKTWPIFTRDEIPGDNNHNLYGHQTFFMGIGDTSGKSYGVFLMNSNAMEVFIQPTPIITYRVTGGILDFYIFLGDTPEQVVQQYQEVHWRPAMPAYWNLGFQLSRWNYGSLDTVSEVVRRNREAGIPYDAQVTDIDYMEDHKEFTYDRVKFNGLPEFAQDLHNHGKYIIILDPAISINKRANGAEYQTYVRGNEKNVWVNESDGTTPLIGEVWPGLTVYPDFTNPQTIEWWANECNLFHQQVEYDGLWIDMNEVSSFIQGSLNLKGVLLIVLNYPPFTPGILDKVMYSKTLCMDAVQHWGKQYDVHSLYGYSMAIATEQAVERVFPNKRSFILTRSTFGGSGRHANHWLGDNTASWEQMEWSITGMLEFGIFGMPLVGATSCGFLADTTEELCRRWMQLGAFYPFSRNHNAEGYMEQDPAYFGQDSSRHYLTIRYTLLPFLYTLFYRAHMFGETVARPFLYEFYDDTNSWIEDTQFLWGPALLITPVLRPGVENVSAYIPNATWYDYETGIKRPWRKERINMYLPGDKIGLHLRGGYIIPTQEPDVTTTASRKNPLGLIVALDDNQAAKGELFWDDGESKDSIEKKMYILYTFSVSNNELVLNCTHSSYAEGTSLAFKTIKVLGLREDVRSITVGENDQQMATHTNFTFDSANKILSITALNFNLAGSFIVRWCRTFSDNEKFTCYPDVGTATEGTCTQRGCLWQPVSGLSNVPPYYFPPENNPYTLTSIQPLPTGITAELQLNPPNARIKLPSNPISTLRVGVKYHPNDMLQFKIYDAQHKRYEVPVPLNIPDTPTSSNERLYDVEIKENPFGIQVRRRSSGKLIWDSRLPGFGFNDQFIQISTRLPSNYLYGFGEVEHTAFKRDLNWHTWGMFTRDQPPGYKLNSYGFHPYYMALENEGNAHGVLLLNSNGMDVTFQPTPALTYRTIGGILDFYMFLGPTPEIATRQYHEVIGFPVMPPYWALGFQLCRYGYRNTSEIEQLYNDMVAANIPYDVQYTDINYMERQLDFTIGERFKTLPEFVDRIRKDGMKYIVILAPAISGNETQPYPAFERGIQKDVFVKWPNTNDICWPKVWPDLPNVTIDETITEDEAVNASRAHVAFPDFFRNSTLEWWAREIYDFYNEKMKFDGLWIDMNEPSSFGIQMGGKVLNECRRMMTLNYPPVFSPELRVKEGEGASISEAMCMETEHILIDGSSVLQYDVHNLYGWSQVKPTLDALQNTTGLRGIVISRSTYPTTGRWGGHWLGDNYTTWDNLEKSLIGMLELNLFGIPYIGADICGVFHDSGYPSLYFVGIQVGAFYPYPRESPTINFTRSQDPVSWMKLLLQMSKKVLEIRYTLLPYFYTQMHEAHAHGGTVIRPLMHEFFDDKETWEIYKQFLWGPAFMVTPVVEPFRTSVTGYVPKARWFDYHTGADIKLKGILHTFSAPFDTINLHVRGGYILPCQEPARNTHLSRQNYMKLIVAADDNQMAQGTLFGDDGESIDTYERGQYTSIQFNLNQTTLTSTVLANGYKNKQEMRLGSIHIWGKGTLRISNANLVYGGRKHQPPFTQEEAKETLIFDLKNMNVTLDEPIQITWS

For the compound `CCCCN1CC(O)C(O)C(O)C1CO` [Compound 2, N-butyl-D-1-deoxynojirimycin, reference compound], the half-maximal inhibitory concentration (IC50) (in general, the point on the concentration scale where inhibition reaches its midpoint) amounted to 0.68 µM in assay [1], 1.7 µM on Rat intestinal maltase, 1.6 µM in assay [2] and 2.1 µM in assay [3].
In the case of `Cc1c(C)c2c(c(C)c1OCCCCCN1CC(O)C(O)C(O)C1CO)CCC(C)(CCCC(C)CCCC(C)CCCC(C)C)O2` (stereo not drawn) [Compound 4, 5′-tocopheroxypentyl-DNJ], the inhibition at 50 µM in assay [1] (50 μM, read-out: inhibition of GluI at the maximum tested concentration) was below 50%; in assay [2] (50 μM, read-out: inhibition of intestinal isomaltase at the maximum tested concentration) it was below 50%; in assay [3] (50 μM, read-out: inhibition of lysosomal glucosidase at the maximum tested concentration), below 50%. Also, the IC50 (in assay [1]; at Rat intestinal maltase; in assay [2]; in assay [3]) was above 50 µM throughout. In the assay with Rat intestinal maltase (50 μM), the “inhibition of intestinal maltase at the maximum tested concentration” value is given as “less than 50%”.
